Key:
[1] = target: T1, Human PDGFRα, cytoplasmic domain (GST-PDGFRα) (Homo sapiens, UniProt P16234); assay: Human PDGFRα biochemical inhibition assay (off-chip Mobility Shift Assay)
T1 construct: made in house

[2] = target: T2, Human PDGFRβ, cytoplasmic domain (GST-PDGFRβ) (Homo sapiens, UniProt P09619); assay: Human PDGFRβ biochemical inhibition assay (off-chip Mobility Shift Assay)
T2 construct: made in house
Summary of the method: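 GST-tagged cytoplasmic domain (aa 557-1106) from baculovirus was incubated 1 h at room temperature with compound, CSKtide, ATP at Km and Mg²⁺ in HEPES buffer, pH 7.5. Phosphorylated and unphosphorylated peptide were separated by off-chip mobility shift, and the product ratio P/(P+S) gave percent inhibition.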

T1 sequence (P16234 550-1089 T674I): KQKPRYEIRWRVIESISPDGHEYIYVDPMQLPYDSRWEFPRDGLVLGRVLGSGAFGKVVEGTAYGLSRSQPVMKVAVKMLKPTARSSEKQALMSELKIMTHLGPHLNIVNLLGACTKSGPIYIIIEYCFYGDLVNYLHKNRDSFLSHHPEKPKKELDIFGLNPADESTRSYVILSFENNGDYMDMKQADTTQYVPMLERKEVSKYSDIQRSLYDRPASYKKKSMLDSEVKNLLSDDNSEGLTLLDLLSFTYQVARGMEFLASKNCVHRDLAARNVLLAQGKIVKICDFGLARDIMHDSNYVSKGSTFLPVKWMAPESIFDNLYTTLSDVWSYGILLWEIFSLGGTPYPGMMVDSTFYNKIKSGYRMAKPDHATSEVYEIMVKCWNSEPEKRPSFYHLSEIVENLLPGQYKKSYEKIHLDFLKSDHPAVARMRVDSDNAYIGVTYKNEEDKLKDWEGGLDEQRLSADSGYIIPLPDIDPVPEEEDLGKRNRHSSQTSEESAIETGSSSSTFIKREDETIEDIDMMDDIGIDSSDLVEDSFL
T2 sequence (P09619 with tags, fused parts or gaps): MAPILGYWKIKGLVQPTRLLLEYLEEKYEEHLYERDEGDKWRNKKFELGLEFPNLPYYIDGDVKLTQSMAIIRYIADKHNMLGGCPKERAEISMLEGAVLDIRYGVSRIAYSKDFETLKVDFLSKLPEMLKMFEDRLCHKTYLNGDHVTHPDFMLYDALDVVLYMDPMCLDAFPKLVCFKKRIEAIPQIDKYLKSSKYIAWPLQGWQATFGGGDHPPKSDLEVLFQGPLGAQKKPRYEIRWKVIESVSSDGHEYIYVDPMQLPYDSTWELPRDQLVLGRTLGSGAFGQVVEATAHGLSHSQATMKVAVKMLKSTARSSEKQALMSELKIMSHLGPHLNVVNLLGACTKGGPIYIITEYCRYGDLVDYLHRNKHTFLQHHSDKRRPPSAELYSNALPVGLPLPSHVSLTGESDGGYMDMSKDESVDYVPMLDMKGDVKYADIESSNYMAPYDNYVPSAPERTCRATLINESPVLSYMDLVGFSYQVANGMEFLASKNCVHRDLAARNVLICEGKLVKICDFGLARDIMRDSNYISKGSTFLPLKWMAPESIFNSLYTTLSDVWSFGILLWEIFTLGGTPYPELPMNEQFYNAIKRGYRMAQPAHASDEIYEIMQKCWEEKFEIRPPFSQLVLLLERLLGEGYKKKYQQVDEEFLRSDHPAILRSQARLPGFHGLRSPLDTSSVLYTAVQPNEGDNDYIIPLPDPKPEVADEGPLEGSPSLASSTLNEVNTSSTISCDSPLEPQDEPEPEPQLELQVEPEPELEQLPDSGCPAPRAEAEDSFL

## C[C@H](Nc1cnc2cnn(C)c2n1)c1cc(NC(=O)c2ccc(C3CC3)nc2)ccc1F [Compound 201, (S)-6-cyclopropyl-N-(4-fluoro-3-(1-((1-methyl-1H-pyrazolo[3,4-b]pyrazin-6-yl)amino)ethyl)phenyl) nicotinamide]
[1]
  IC50: < 300 nM
[2]
  IC50: < 300 nM

## Cc1cc2ncc(N[C@@H](C)c3cccc(NC(=O)c4cnn(C5CCC5)c4)c3)nc2s1 [Compound 609, (S)-1-cyclobutyl-N-(3-(1-((6-methylthieno[2,3-b]pyrazin-3-yl)amino)ethyl)phenyl)-1H-pyrazole-4-carboxamide]
[1]
  IC50: < 300 nM
[2]
  IC50: < 300 nM

## CCn1cc2ncc(N[C@@H](C)c3cc(NC(=O)Cc4ccc(C)cn4)ccc3C)nc2n1 [Compound 660, (S)-N-(3-(1-((2-ethyl-2H-pyrazolo[3,4-b]pyrazin-6-yl)amino)ethyl)-4-methylphenyl)-2-(5-methylpyridin-2-yl) acetamide]
[1]
  IC50: < 300 nM
[2]
  IC50: 300 to 1000 nM

## CCn1cc2ncc(N[C@@H](C)c3cccc(NC(=O)c4ccc(CN5CC6(COC6)C5)c(C5CC5)c4)c3)nc2n1 [Compound 505, (S)-4-((2-oxa-6-azaspiro[3.3]heptan-6-yl)methyl)-3-cyclopropyl-N-(3-(1-((2-ethyl-2H-pyrazolo[3,4-b]pyrazin-6-yl)amino)ethyl)phenyl)benzamide]
[1]
  IC50: < 300 nM
[2]
  IC50: < 300 nM

## C[C@H](Nc1cnc2cnn(C)c2n1)c1cccc(NC(=O)c2cc(C(F)(F)F)n(C)n2)c1 [Compound 164, (S)-1-methyl-N-(3-(1-((1-methyl-1H-pyrazolo[3,4-b]pyrazin-6-yl)amino)ethyl)phenyl)-5-(trifluoromethyl)-1H-pyrazole-3-carboxamide]
[1]
  IC50: < 300 nM
[2]
  IC50: < 300 nM

## CCn1cc2ncc(N[C@@H](C)c3cccc(NC(=O)Nc4cnc(C5CC5)c(C)c4)c3)nc2n1 [Compound 734, (S)-1-(6-cyclopropyl-5-methylpyridin-3-yl)-3-(3-(1-((2-ethyl-2H-pyrazolo[3,4-b]pyrazin-6-yl)amino)ethyl)phenyl)urea]
[1]
  IC50: < 300 nM
[2]
  IC50: < 300 nM

## CCn1cc2ncc(N[C@@H](C)c3cc(NC(=O)c4cnc5c(c4)CCCO5)ccc3F)nc2n1 [Compound 59, (S)-N-(3-(1-((2-ethyl-2H-pyrazolo[3,4-b]pyrazin-6-yl)amino)ethyl)-4-fluorophenyl)-3,4-dihydro-2H-pyrano[2,3-b] pyridine-6-carboxamide]
[1]
  IC50: < 300 nM
[2]
  IC50: < 300 nM

## CCn1cc2ncc(N[C@@H](C)c3cccc(NC(=O)c4ccc(CN5CCN(C)CC5)nc4)c3)nc2n1 [Compound 387, (S)-N-(3-(1-((2-ethyl-2H-pyrazolo[3,4-b]pyrazin-6-yl)amino)ethyl)phenyl)-6-((4-methylpiperazin-1-yl)methyl) nicotinamide]
[1]
  IC50: < 300 nM
[2]
  IC50: ≥ 1000 nM

## CCn1cc2ncc(N[C@@H](C)c3cccc(NC(=O)c4cncc(C(C)(C)F)c4)c3)nc2n1 [Compound 280, (S)-N-(3-(1-((2-ethyl-2H-pyrazolo[3,4-b]pyrazin-6-yl)amino)ethyl)phenyl)-5-(2-fluoropropan-2-yl)nicotinamide]
[1]
  IC50: < 300 nM
[2]
  IC50: < 300 nM

## Cc1c[nH]c2ncc(N[C@@H](C)c3cccc(NC(=O)c4ccc(C5CC5)nc4)c3)nc12 [Compound 558, (S)-6-cyclopropyl-N-(3-(1-((7-methyl-5H-pyrrolo[2,3-b]pyrazin-2-yl)amino)ethyl)phenyl)nicotinamide]
[1]
  IC50: < 300 nM
[2]
  IC50: < 300 nM

## CCn1cc2ncc(N[C@@H](C)c3cc(NC(=O)c4cnc(N5CCN(C)CC5)c(C(F)(F)F)c4)ccc3F)nc2n1 [Compound 445, (S)-N-(3-(1-((2-ethyl-2H-pyrazolo[3,4-b]pyrazin-6-yl)amino)ethyl)-4-fluorophenyl)-6-(4-methylpiperazin-1-yl)-5-(trifluoromethyl)nicotinamide]
[1]
  IC50: < 300 nM
[2]
  IC50: < 300 nM
